Results reported in patent US12421199B2, “Sphingosine 1 phosphate receptor modulators” (RECEPTOS LLC, priority 2020, dated 2025).

Key:
S1P1 = biological target: T1, S1P1 (Homo sapiens, UniProt P21453); assay: [35S]-GTPγS binding assay, S1P1; format: biochemical; conditions: CHO-S1P receptor membranes; for Emax: control S1P, read-out: S1P1 % Efficacy
T1 construct: expressed in transfected cells; host or cells: CHO cell membranes
Description: (§1) Binding assays for [35S]-GTPTS were performed in 96-well non-binding surface plates with a final volume of 200 μL. The test compounds were serial diluted in DMSO and added to assay plates using a Tecan D300E digital printer with a total volume of 0.4 μL. The control sphingosine-1-phosphate (S1P) was prepared separately by preparing a 400 μM stock solution from a 100 nmol pellet of S1P in 10 mM Na2CO3 with 2% […]. The serial dilution of S1P was done using complete assay buffer (20 mM HEPES, 10 mM MgCl2, 100 mM NaCl, 1 mM EDTA, 0.1% fatty acid free bovine serum albumin [BSA], and 30 μg/mL saponin, pH7.4) and transferred to wells already containing 0.4 μL DMSO. All the wells were then loaded to a total volume of 40 μL of complete assay buffer, except the non-specific binding (NSB) wells. For NSB wells, 40 µL/well of 50 μM GTPTS (Sigma Aldrich, cat #G8634, St. Louis, MO) was added to wells containing 0.4 μL of DMSO. The assay was started by the addition of 120 μL/well of CHO-S1P receptor membrane solution containing 40 μg/mL of membrane protein, 16.67 μM guanosine diphosphate (GDP; Sigma Aldrich, cat #G7127, St. Louis, MO), and 2.5 mg/mL of WGA PVT SPA beads in complete buffer. Assay plates were then sealed and incubated at room temperature with gentle agitation for 30 minutes. Next, 40 μL/well of 1 nM of [^35S]-GTPTS (PerkinElmer, cat #NEG030X250UC, Waltham, MA) in basic assay buffer (20 mM HEPES, 10 mM MgCl2, 100 mM NaCl, and 1 mM EDTA, pH7.4) was added to the assay plates to yield a final concentration of […] and the plates were further incubated for 40 minutes at room temperature with gentle agitation. The assay was terminated by centrifugation of the plates at 1000 rpm for 3 minutes using an Eppendorf 5810R centrifuge (Eppendorf, Hamburg, Germany) and G protein bound radioactivity was quantitated using a MicroBeta2 microplate scintillation counter (PerkinElmer, Waltham, MA).

S1P5 = biological target: T2, S1P5 (Homo sapiens, UniProt Q9H228); assay: [35S]-GTPγS binding assay, S1P5; format: biochemical; conditions: CHO-S1P receptor membranes; for Emax: control S1P, read-out: S1P5 % Efficacy
T2 construct: expressed in transfected cells; host or cells: CHO cell membranes
Description: as §1

T1 sequence (P21453 whole entry, species assumed): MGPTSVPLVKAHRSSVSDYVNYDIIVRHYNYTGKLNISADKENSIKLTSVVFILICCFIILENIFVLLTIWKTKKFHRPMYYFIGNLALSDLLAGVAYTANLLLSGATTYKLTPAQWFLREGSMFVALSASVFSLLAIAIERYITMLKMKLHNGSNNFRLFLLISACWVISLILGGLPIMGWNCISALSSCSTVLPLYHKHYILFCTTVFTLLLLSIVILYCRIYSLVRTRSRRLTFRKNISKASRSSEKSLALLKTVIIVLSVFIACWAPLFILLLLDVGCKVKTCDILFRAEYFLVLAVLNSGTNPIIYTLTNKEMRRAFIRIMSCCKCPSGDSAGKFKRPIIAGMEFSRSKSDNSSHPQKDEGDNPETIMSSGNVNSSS
T2 sequence (Q9H228 whole entry, species assumed): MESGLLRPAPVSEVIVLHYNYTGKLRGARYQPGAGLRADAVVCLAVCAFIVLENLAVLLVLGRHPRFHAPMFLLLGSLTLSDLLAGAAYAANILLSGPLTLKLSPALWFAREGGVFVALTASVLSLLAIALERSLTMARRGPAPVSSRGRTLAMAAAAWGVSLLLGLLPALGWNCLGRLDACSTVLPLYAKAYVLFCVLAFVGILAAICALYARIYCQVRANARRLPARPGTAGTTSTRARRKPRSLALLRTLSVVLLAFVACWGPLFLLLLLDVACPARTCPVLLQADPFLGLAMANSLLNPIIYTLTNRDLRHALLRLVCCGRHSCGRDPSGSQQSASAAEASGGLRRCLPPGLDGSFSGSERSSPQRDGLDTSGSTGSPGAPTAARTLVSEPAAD

SMILES	EC50 (S1P1) [nM]	Emax (S1P1) [%]	EC50 (S1P5) [nM]	Emax (S1P5) [%]
CCC1(O)CCc2c(-c3noc(-c4ccc(OC(C)C)c(C#N)c4)n3)cccc21 (centres unmarked) [compound 3, 5-(3-(1-ethyl-1-hydroxy-2,3-dihydro-1H-inden-4-yl)-1,2,4-oxadiazol-5-yl)-2-isopropoxybenzonitrile]	14	97	147	80
CC(C)Oc1ccc(-c2nc(-c3cccc4c3CCC4(O)C(C)C)no2)cc1C#N (centres unmarked) [compound 4, 5-(3-(1-hydroxy-1-isopropyl-2,3-dihydro-1H-inden-4-yl)-1,2,4-oxadiazol-5-yl)-2-isopropoxybenzonitrile]	7	97	77	74
